According to ChEMBL document CHEMBL1145787, “Synthesis and structure-activity relationship of N-substituted 4-arylsulfonylpiperidine-4-hydroxamic acids as novel, orally active matrix metalloproteinase inhibitors for the treatment of osteoarthritis” (J Med Chem, 2003):

What was measured:
[1] = In vivo inhibition of Matrix metalloprotease enzyme by Sponge-wrapped cartilage assay, value is relative to activity of RS-130830 (40+/-2) at 10 mg/kg. po. bid; format: functional
[2] = molecular target: Matrix metalloproteinase-9 (Homo sapiens, UniProt P14780); experiment: In vitro inhibitory activity against matrix metalloprotease-9.
Sequence of Matrix metalloproteinase-9 (P14780 whole entry): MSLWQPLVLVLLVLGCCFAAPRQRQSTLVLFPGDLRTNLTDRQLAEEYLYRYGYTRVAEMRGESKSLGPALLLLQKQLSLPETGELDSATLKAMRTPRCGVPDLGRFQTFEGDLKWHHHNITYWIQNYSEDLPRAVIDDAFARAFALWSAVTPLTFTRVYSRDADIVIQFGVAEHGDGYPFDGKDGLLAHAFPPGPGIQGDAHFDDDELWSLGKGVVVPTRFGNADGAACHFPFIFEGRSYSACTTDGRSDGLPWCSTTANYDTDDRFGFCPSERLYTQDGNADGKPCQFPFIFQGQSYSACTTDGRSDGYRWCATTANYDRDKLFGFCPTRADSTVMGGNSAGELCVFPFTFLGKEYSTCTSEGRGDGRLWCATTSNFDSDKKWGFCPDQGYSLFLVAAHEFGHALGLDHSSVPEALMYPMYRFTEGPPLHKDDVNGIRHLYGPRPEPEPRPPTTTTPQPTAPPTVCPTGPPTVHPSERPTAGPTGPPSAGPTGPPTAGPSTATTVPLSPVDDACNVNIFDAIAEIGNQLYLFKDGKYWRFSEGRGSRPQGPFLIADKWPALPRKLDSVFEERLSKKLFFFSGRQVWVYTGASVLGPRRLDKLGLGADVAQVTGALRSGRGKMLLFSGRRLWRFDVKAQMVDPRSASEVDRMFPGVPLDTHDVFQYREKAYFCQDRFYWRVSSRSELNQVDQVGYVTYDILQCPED

[3] = In vivo inhibitory activity against Matrix metalloprotease enzyme by dialysis implant assay, value is relative to activity of CGS-27023 (43+/-2) at 25 mg/kg. po; format: functional
[4] = molecular target: Collagenase 3 (Homo sapiens, UniProt P45452)
[5] = In vivo inhibitory activity against Matrix metalloprotease enzyme by dialysis implant assay, value are relative to activity of CGS-27023 (71+/-2) at 25 mg/kg. po; format: functional
[6] = molecular target: T1, Interstitial collagenase (Homo sapiens, UniProt P03956); experiment: In vitro inhibitory activity against matrix metalloprotease-1
T1 sequence (P03956 whole entry): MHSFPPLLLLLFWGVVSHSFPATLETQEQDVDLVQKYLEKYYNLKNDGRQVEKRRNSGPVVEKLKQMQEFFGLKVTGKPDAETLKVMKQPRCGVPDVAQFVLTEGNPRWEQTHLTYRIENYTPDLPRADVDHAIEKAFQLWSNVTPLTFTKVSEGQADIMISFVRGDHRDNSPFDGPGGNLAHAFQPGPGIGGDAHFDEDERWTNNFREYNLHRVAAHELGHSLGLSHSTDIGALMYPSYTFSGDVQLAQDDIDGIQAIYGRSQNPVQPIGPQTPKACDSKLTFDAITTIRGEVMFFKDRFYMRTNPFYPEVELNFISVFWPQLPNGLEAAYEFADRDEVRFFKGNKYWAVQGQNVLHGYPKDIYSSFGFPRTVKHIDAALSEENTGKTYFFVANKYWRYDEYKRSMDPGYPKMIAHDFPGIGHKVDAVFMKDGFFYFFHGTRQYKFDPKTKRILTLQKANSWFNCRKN

[7] = molecular target: Disintegrin and metalloproteinase domain-containing protein 17 (Homo sapiens, UniProt P78536); experiment: In vitro inhibitory activity against tumor necrosis factor alpha converting enzyme (TACE).
Sequence of Disintegrin and metalloproteinase domain-containing protein 17 (P78536 whole entry, the tested form may be a part): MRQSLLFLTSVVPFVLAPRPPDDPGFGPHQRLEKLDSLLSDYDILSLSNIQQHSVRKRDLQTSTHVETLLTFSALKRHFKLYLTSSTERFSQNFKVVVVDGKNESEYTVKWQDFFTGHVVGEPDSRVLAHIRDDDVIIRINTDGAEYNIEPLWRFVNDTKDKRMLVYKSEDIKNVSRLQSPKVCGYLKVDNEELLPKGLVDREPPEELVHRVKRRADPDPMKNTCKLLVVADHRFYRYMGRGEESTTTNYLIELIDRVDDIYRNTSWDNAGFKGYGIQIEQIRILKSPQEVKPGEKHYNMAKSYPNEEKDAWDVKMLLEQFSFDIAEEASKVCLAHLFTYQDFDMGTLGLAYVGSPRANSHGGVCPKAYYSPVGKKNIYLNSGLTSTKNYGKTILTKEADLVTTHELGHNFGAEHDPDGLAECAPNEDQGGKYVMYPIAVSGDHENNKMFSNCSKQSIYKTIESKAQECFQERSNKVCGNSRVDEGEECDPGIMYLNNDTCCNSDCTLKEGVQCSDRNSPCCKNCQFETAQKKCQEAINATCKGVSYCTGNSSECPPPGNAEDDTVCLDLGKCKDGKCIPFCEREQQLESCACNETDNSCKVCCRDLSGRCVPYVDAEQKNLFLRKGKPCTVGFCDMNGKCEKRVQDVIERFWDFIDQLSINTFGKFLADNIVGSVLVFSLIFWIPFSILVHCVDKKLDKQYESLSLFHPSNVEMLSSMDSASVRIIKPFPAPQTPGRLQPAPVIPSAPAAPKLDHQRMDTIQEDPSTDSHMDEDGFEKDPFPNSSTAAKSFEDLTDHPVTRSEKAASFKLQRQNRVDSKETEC

| IC50 [4] [nM] | Structure (SMILES) | inhibition in vivo at 10 mg/kg [1] [%] | IC50 [2] [nM] | inhibition in vivo at 25 mg/kg [3] [%] | inhibition in vivo at 25 mg/kg [5] [%] | IC50 [6] [nM] | IC50 [7] [nM] |
| --- | --- | --- | --- | --- | --- | --- | --- |
| 2 | CCCCOc1ccc(S(=O)(=O)C2(C(=O)NO)CCN(C)CC2)cc1 | 12 | 10 | 64 |  |  |  |
|  | O=C(NO)C1(S(=O)(=O)c2ccc(-c3ccco3)cc2)CCN(Cc2ccccc2)CC1 |  | 3 |  | 95 | 40 | 416 |
